From patent publication US4797280A, “Antibiotics produced by Kibdelosporangium aridum Shearer gen. nov., sp. nov. ATCC 39323” (SmithKline Beckman Corporation, priority 1986, dated 1989)
Where a SMILES comes first, the peptide text is derived from it. Bridges are numbered along the chain shown (N, C = ends). [ ]: non-standard residue; d: D form. The star is where a group is joined. Ileψ(thiazoline)Cys = CC[C@H](C)[C@H](N)C1=N[C@H](C(=O)*)CS1; dOrn = NCCC[C@@H](N)C(=O)O

Experiments:
Kibdelosporangium aridum = test: Susceptibility of K. aridum to antibiotics, disk diffusion; format: cell-based; conditions: 28° C., one week
Procedure: Susceptibility of K. aridum to antibiotics was examined by placing BBL susceptibility disks on nutrient agar plates seeded with K. aridum as an overlay. Diameters of the zones of inhibition were measured after incubation for one week at 28° C.
Susceptibility to Antibiotics. […] Chlortetracycline ([…]) produced 18 mm zones of inhibition; tetracycline (5 μg) 11-12 mm zones; rifampin (5 μg) 11-15 mm zones; novobiocin (5 μg) 27-28 mm zones. All zones of inhibition contained at least a few resistant colonies.

[1] = test system: rumen fluid from dairy cows; test: Rumen in vitro experiment with dairy cow rumen fluid; conditions: about 23 hours
Procedure: A similar experiment was carried out using rumen fluid from dairy cows fed a typical dairy cow diet of two parts corn silage and three parts dairy concentrate. Specifically, strained rumen fluid (10 ml) was obtained, from an animal fed two hours earlier, via cannula and was mixed with 10 ml of a nutrient broth comprising a 2:3 mix of corn silage and dairy concentrate. After adding a selected growth promotant, the mixture was incubated at 39° C. for about 23 hours, with oscillation.

Which “Susceptibility of K. aridum” value (Kibdelosporangium aridum; disk 2 units) does the source give for `CC[C@H](C)[C@H](N)C1=N[C@H](C(=O)N[C@@H](CC(C)C)C(=O)N[C@H](CCC(=O)O)C(=O)N[C@H](C(=O)N[C@H]2CCCCNC(=O)[C@H](CC(N)=O)NC(=O)[C@@H](CC(=O)O)NC(=O)[C@H](Cc3cnc[nH]3)NC(=O)[C@@H](Cc3ccccc3)NC(=O)[C@H]([C@@H](C)CC)NC(=O)[C@@H](CCCN)NC2=O)[C@@H](C)CC)CS1` [bacitracin] ({Ileψ(thiazoline)Cys}-L[dE]IK[dOrn]I[dF]H[dD]N; lactam 4-C) here?
The value was “resistant”.

Which “Susceptibility of K. aridum” value (Kibdelosporangium aridum; disk 10 μg) does the source give for `[H]/N=C(/N)N[C@H]1[C@H](O)[C@@H](O)[C@H](O[C@@H]2O[C@@H](C)[C@](O)(C=O)[C@H]2O[C@@H]2O[C@@H](CO)[C@H](O)[C@@H](O)[C@@H]2NC)[C@@H](N/C(N)=N\[H])[C@@H]1O` [streptomycin] here?
Its value is “resistant”.

For Avoparcin, which “% PR” value ([1]; 0.5 ppm) is on record?
The value was 101% OF CONTROL.

What about the ACE ([1]; 0.5 ppm) of the same compound?
Its ACE is 100% OF CONTROL.

What about the AMO ([1]; 0.5 ppm) of the same compound?
Its AMO is 79% OF CONTROL.

And the BUT ([1]; 0.5 ppm)?
The BUT was 100% OF CONTROL.

What about the DLAC ([1]; 0.5 ppm) of the same compound?
The DLAC was 0% OF CONTROL.

What about the ETOH ([1]; 0.5 ppm) of the same compound?
The ETOH was 0% OF CONTROL.

What about the GLU ([1]; 0.5 ppm) of the same compound?
Its GLU is 0% OF CONTROL.

What about the IBU ([1]; 0.5 ppm) of the same compound?
The IBU was 122% OF CONTROL.

And the IVA ([1]; 0.5 ppm)?
Its IVA is 101% OF CONTROL.

What about the LLAC ([1]; 0.5 ppm) of the same compound?
The LLAC was 0% OF CONTROL.

And the LYS ([1]; 0.5 ppm)?
The LYS was 91% OF CONTROL.

And the NH--N ([1]; 0.5 ppm)?
Its NH--N is 92% OF CONTROL.

What about the PRO ([1]; 0.5 ppm) of the same compound?
The PRO was 102% OF CONTROL.

What about the TOTAL ([1]; 0.5 ppm) of the same compound?
The TOTAL was 1200% OF CONTROL.

And the VAL ([1]; 0.5 ppm)?
Its VAL is 97% OF CONTROL.

And the “% PR” value ([1]; 5 ppm)?
The value was 113% OF CONTROL.

What about the ACE ([1]; 5 ppm) of the same compound?
The ACE was 94% OF CONTROL.

And the AMO ([1]; 5 ppm)?
Its AMO is 107% OF CONTROL.

What about the BUT ([1]; 5 ppm) of the same compound?
The BUT was 91% OF CONTROL.

What about the DLAC ([1]; 5 ppm) of the same compound?
The DLAC was 0% OF CONTROL.

And the ETOH ([1]; 5 ppm)?
The ETOH was 0% OF CONTROL.

What about the GLU ([1]; 5 ppm) of the same compound?
Its GLU is 0% OF CONTROL.

And the IBU ([1]; 5 ppm)?
Its IBU is 146% OF CONTROL.

And the IVA ([1]; 5 ppm)?
The IVA was 115% OF CONTROL.

And the LLAC ([1]; 5 ppm)?
The LLAC was 0% OF CONTROL.

What about the LYS ([1]; 5 ppm) of the same compound?
Its LYS is 92% OF CONTROL.

And the NH--N ([1]; 5 ppm)?
The NH--N was 122% OF CONTROL.

What about the PRO ([1]; 5 ppm) of the same compound?
The PRO was 112% OF CONTROL.

And the TOTAL ([1]; 5 ppm)?
Its TOTAL is 99% OF CONTROL.

And the VAL ([1]; 5 ppm)?
The VAL was 103% OF CONTROL.

What about the “% PR” value ([1]; 50 ppm) of the same compound?
Its value is 128% OF CONTROL.

What about the ACE ([1]; 50 ppm) of the same compound?
Its ACE is 108% OF CONTROL.

And the AMO ([1]; 50 ppm)?
The AMO was 123% OF CONTROL.

And the BUT ([1]; 50 ppm)?
Its BUT is 88% OF CONTROL.

What about the DLAC ([1]; 50 ppm) of the same compound?
The DLAC was 0% OF CONTROL.

What about the ETOH ([1]; 50 ppm) of the same compound?
Its ETOH is 0% OF CONTROL.

And the GLU ([1]; 50 ppm)?
The GLU was 0% OF CONTROL.

What about the IBU ([1]; 50 ppm) of the same compound?
The IBU was 116% OF CONTROL.

What about the IVA ([1]; 50 ppm) of the same compound?
The IVA was 104% OF CONTROL.

And the LLAC ([1]; 50 ppm)?
Its LLAC is 0% OF CONTROL.

What about the LYS ([1]; 50 ppm) of the same compound?
Its LYS is 88% OF CONTROL.

And the NH--N ([1]; 50 ppm)?
Its NH--N is 148% OF CONTROL.

What about the PRO ([1]; 50 ppm) of the same compound?
Its PRO is 137% OF CONTROL.

And the TOTAL ([1]; 50 ppm)?
Its TOTAL is 107% OF CONTROL.

What about the VAL ([1]; 50 ppm) of the same compound?
The VAL was 99% OF CONTROL.

With gentamicin as the compound, how does the “Susceptibility of K. aridum” value (Kibdelosporangium aridum; disk 10 μg) read?
Its value is “resistant”.
